Measured values reported in patent publication US12110496B2, “Method of determining the zygosity of event MON 88302” (priority 2010, dated 2024).

Columns and labels:
[1] = tested on: canola comprising event RT73 (Genuity Roundup Ready Canola, variety 34-65); assay: Field trial of glyphosate tolerance, RT73 event (crop injury, maturity, seed moisture, yield); type: in vivo, Brassica napus
Text: (§1) The current registered glyphosate rate for the Genuity™ Roundup Ready® Canola system (event RT73) is a single application of 675 g ae/ha or two 450 g ae/ha applications up to the six leaf stage of the canola crop. RT73 was compared with the MON 88302 event at multiple single application rates of glyphosate. Applications were made from post emergence to the first flower of the canola crop. The Genuity™ Roundup Ready® Canola system (RT73 event) was represented by the commercial open pollinated variety 34-65, and event MON88302 was transformed into the Ebony germplasm.
(§2) Eight trials were established with six taken to harvest (one site was lost to drought and one site was lost to hail, and data from one harvested site was not used due to the coefficient of variation (CV) exceeding the predetermined cut-off value). Standard canola growing practices were utilized throughout the season to optimize plant growth. Pre-emergent and post-emergent conventional herbicides and seed treatment containing fungicide and insecticide were used to minimize pest pressure. Trials were set up as a split block design with Genuity™ Roundup Ready® Canola (RT73 event) or MON 88302 systems blocked and herbicide rates randomized within the block. Plots were two by six meters and replicated three times. Plots were sprayed with handheld boom sprayers at 100-110 l/ha application rate at the appropriate crop stage. The Canadian formulation of Roundup WeatherMAX® (540 g/L) was used as the glyphosate product. The four to six leaf stage was defined as four to six true leaves on the main stem, and first flower was when 50% of the plants had at least one flower. Percent chlorosis (% CHLR) was recorded seven to ten days after herbicide application (DAT or days after treatment). Percent chlorosis is a visual estimate of the amount of yellowing on the leaves of plants as a result of herbicide treatment compared to the untreated check on a 1 to 100 scale. Percent growth reduction (% GR) was recorded 14-21 days after herbicide application (DAT). Percent growth reduction is a visual evaluation used to describe plant growth reduction consisting of, but not limited to, reduced height and/or quantity of foliage for the treated area. The evaluation pertains only to the above ground portion of the plant. Percent growth reduction is compared to the non-treated check and is rated on a 1 to 100 scale. Maturity was recorded as days after planting to when 30% of the seeds on the main raceme are brown/black in color. Percent seed moisture was recorded electronically during harvesting. All plots were swathed and then allowed to dry until seed moisture was low enough to facilitate harvesting. Weight and seed moisture was recorded electronically during harvesting and converted to bushels/acre at 10% seed moisture. Each location was analyzed individually and averages across locations were analyzed using statistical software. Data were screened for outliers using the standard two-pass procedure based on deleted studentized residuals using a False Discovery Rate (FDR) adjustment for an experiment-wise Type I error rate of 5% at each location. Outliers were removed prior to analysis. The standard analysis of variance for a split-plot design was performed by mixed model with restricted maximum likelihood estimation-variety and herbicide treatments were treated as fixed effects, replications and locations were random effects. Least-squares means were calculated for each variety and each treatment, and t-tests with comparison-wise error rates of 5% were used to determine the significance between variety and control at each herbicide treatment level on canola growth characteristics. Crop injury, maturity, and yield were measured to assess benefits.

[2] = tested on: canola comprising event MON 88302 (Ebony germplasm); assay: Field trial of glyphosate tolerance, MON 88302 event (crop injury, maturity, seed moisture, yield); type: in vivo, Brassica napus; conditions: for 7-10 DAT % CHLR Avg / 14-21 DAT % GR Avg: MON88302
Text: as §1, §2

[3] = tested on: Brassica napus events from construct 1; assay: First year efficacy field trials, construct 1 events; type: in vivo
Description: (§3) The 25 events were also evaluated in first year field testing for efficacy located at the same testing site as the agronomy field trials. Efficacy field trials were initiated to evaluate the vegetative and reproductive tolerance of the events to sequential applications of glyphosate at various application timings and rates. The 16 R2 events from construct 1 were evaluated at 5 locations. The 3 R2 events from construct 2, the 3 R2 events from construct 4, and the 3 R2 events from construct 5 were evaluated at 4 locations. Each study contained the positive isoline of each event and two commercial varieties. A split plot design with 3 replications was used with herbicide treatments as whole plots and event entries as subplots. A non-sprayed treatment was included for comparison.
Events were evaluated for vegetative and reproductive tolerance to either a single application of 1.6 lb AE/A or two sequential applications of 0.8 lb AE/A when applied from crop emergence up to first flower. Roundup WeatherMAX® was applied at three different rates that were equivalent to 2×, 4×, and 8× of the single application rate (Table 2). The initial application was made at the four leaf stage followed by a second application at the prebolt stage. […]
(§4) Data Collection was performed as above. Glyphosate injury was assessed as follows. […] Vegetative injury was rated after the first glyphosate application while reproductive percent chlorosis/necrosis was evaluated after the second application using a scale ranging from 0% (no injury) to 100% (plant death). Growth reduction was evaluated at 14 to 21 days after each application using a scale ranging from 0 to 100%. Vegetative growth reduction was evaluated after the first application while reproductive growth reduction was determined after the sequential application. Least-squares means were calculated for each combination of glyphosate level and event, and t-tests were used to determine the significance of the effects of glyphosate on event tolerance. […]

[4] = tested on: Brassica napus events from construct 2; assay: First year efficacy field trials, construct 2 events; type: in vivo
Description: as §3, with “A split plot design with 3 replications was used with herbicide treatments as whole plots and event entries as subplots. A non-sprayed treatment was included for comparison.” left out
Events were evaluated for vegetative and reproductive tolerance to either a single application of 1.6 lb AE/A or two sequential applications of 0.8 lb AE/A when applied from crop emergence up to first flower. […]
as §4, with “application.” for “application. Least-squares means were calculated for each combination of glyphosate level and event, and t-tests were used to determine the significance of the effects of glyphosate on event tolerance.”

[5] = glyphosate 450 g ae/ha at 1st flower
[6] = glyphosate 450 g ae/ha at 4-6 leaf
[7] = glyphosate 900 g ae/ha at 1st flower
[8] = glyphosate 900 g ae/ha at 4-6 leaf
[9] = glyphosate 1800 g ae/ha at 1st flower
[10] = glyphosate 1800 g ae/ha at 4-6 leaf
[11] = glyphosate 3600 g ae/ha at 1st flower
[12] = glyphosate 3600 g ae/ha at 4-6 leaf
[13] = glyphosate 11800 g ae/ha at 4-6 leaf

Compound: O=C(O)CNCP(=O)(O)O [glyphosate, N-phosphonomethyl-glycine]
- yield reduction ([1]; 2× the proposed rate of 1800 g ae/ha at four to six leaf): 30%
- yield vs unsprayed ([1]; 1800 and 3600 g ae/ha at both stages and 900 g/ha at first flower): significant yield reduction
- yield reduction ([1]; 1800 g ae/ha at four to six leaf): 11.4%
- maturity ([1]; 3600 g ae/ha at both four to six leaf and first flower): delayed significantly
- yield reduction ([1]; all rates shown at first flower (FIG. 3)): significant yield reduction
- 7-10 DAT % CHLR Avg [1, 5]: 0.6%
- 14-21 DAT % GR Avg [1, 5]: 0.8%
- 7-10 DAT % CHLR Avg [1, 6]: 0.3%
- 14-21 DAT % GR Avg [1, 6]: 0.9%
- 7-10 DAT % CHLR Avg [1, 7]: 1.8%
- 14-21 DAT % GR Avg [1, 7]: 0.3%
- 7-10 DAT % CHLR Avg [1, 8]: 2.2%
- 14-21 DAT % GR Avg [1, 8]: 1.3%
- 7-10 DAT % CHLR Avg [1, 9]: 6.7%
- 14-21 DAT % GR Avg [1, 9]: 3.3%
- 7-10 DAT % CHLR Avg [1, 10]: 4.7%
- 14-21 DAT % GR Avg [1, 10]: 5.3%
- 7-10 DAT % CHLR Avg [1, 11]: 10%
- 14-21 DAT % GR Avg [1, 11]: 8.1%
- 7-10 DAT % CHLR Avg ([1]; glyphosate 3600 g ae/ha at 1st flower, listed as Glyphosate): 10.0%
- 7-10 DAT % CHLR Avg [1, 12]: 10%
- 14-21 DAT % GR Avg [1, 12]: 20.8%
- 7-10 DAT % CHLR Avg ([1]; glyphosate 3600 g ae/ha at 4-6 leaf, listed as Glyphosate): 10.0%
- 7-10 DAT % CHLR Avg [2, 5]: 0.0%
- 14-21 DAT % GR Avg [2, 5]: 0.0%
- 7-10 DAT % CHLR Avg [2, 6]: 0.0%
- 14-21 DAT % GR Avg [2, 6]: 0.3%
- 7-10 DAT % CHLR Avg [2, 7]: 0.3%
- 14-21 DAT % GR Avg [2, 7]: 0.8%
- 7-10 DAT % CHLR Avg [2, 8]: 0.7%
- 14-21 DAT % GR Avg [2, 8]: 0.7%
- 7-10 DAT % CHLR Avg [2, 9]: 0.9%
- 14-21 DAT % GR Avg [2, 9]: 0.0%
- 7-10 DAT % CHLR Avg [2, 11]: 4.7%
- 14-21 DAT % GR Avg [2, 11]: 1.1%
- 7-10 DAT % CHLR Avg [2, 12]: 1.7%
- 14-21 DAT % GR Avg [2, 12]: 0.3%
- 7-10 DAT % CHLR Avg [2, 13]: 1.7%
- 14-21 DAT % GR Avg [2, 13]: no percent growth reduction
- 14-21 DAT % GR Avg ([2]; glyphosate 11800 g ae/ha at 4-6 leaf, listed as Glyphosate): 0.0%
- yield reduction ([2]; MON 88302 plants, 1800 g ae/ha and 2× at four to six leaf (FIG. 2)): No significant yield reductions
- maturity ([2]; MON 88302 plants, 1800 g ae/ha at four to six leaf): significant shortening of maturity
- maturity ([2]; MON 88302 plants, all rates except 1800 g ae/ha at four to six leaf): No delay in maturity
- yield vs unsprayed ([2]; MON 88302 plants, any rate or timing): No significant differences in yield
- yield reduction ([2]; MON 88302 plants, glyphosate rates at first flower (FIG. 3)): No significant yield reductions
- vegetative injury ([3]; 2× product concept rate): very minor
- yield ([3]; regardless of rate, one event excepted at 6.4 lb AE/A followed by 6.4 lb AE/A): not negatively impacted
- vegetative and reproductive tolerance to glyphosate ([3]; sequential applications at four leaf and prebolt, 2×, 4×, 8× rates): excellent vegetative and reproductive tolerance
- yield ([4]; all construct 2 events, regardless of application rate): significantly reduced the yield
- injury ([4]; construct 2 events, all glyphosate rates tested): Unacceptable levels of injury
